Test results taken from publication PMC12153356, “An antisense oligomer conjugate with unpredicted bactericidal activity against Fusobacterium nucleatum” (mBio, 2025).
Entries after “also recorded” stand apart in the source; their conditions may differ.

What was measured:
[1] = test system: Salmonella enterica serovar Typhimurium SL1344; experiment: Growth inhibition assay; format: cell-based; conditions: 10 µM, MHB, 1 × 10^5 CFU/mL input, aerobic, 24 h
Method: (§1) Aerobic bacterial culture was conducted with E. coli K12 MG1655 (provided by D. Lee), E. coli Nissle 1917, and S. enterica serovar Typhimurium SL1344 (provided by D. Bumann, Biocenter Basel, Switzerland). The strains were streaked on lysogeny broth plates, incubated o.n. at 37°C and cultured in non-cation-adjusted MHB with aeration at 37°C and 220 rpm constant shaking.
(§2) To determine the MIC value, broth microdilutions were performed according to the standard protocol with some modifications ([119]). An overnight bacterial culture was diluted in a fresh ColB medium and grown to OD600 0.5 (mid-exponential phase). Fusobacteria were then diluted 1:2,500 or 1:250 in fresh MHB to obtain 1 × 10^5 CFU/mL or 1 × 10^6 CFU/mL as indicated. To determine the growth inhibition of P. gingivalis, an o.n. culture grown in BHI+ was diluted 1:1,500 in MHB to obtain 1 × 10^5 CFU/mL. E. coli K12, E. coli Nissle 1917, and S. enterica o.n. cultures grown in MHB were diluted 1:1,800 in fresh MHB to obtain 1 × 10^5 CFU/mL. […] Bacterial growth was monitored by measuring OD600 every 20 min with constant shaking in a plate reader (Biotek) under the normal atmospheric environment or positioned in the anaerobic chamber with double orbital shaking every 20 min prior to each measurement with 237 cpm at 37°C for 120 h.

[2] = test system: E. coli K12 MG1655; experiment: Growth inhibition assay; format: cell-based, Escherichia coli K12; conditions: 10 µM, MHB, 1 × 10^5 CFU/mL input, aerobic, 24 h
Method: as §1, §2

[3] = test system: F. nucleatum subsp. nucleatum ATCC 23726 (FNN23); experiment: Determination of bactericidal effect by CFU spot assay; format: cell-based, Fusobacterium nucleatum subsp. nucleatum ATCC 23726; conditions: 10 µM, 1 × 10^5 CFU/mL in MHB, spotting on BHI agar plates, up to 96 h; three replicates
Method: To investigate the bactericidal effects of PNAs an o.n. culture of FNN23 grown in ColB was diluted 1:50 in fresh ColB and grown to OD600 0.5. This culture was then diluted 1:2,500 to 1 × 10^5 CFU/mL in MHB, and 190 µL of the culture was dispensed into a transparent 96-well plate (Nunc, Thermo Fischer Scientific) together with 10 µL of respective 20× PNA stock or water and incubated at 37°C with 237 cpm shaking every 20 min. At the respective time points, 100 µL was taken out of the well, a 1:10 serial dilution series was prepared with 900 µL anoxic 1× PBS, and 5 µL of each dilution was spotted on BHI plates for CFU determination. Plates were incubated for 3 days at 37°C before taking out the plates of the anaerobic chamber for CFU counting.

[4] = test system: F. nucleatum subsp. nucleatum ATCC 23726 (FNN23); experiment: MIC determination and growth inhibition assay (broth microdilution, OD600 over time); format: cell-based, Fusobacterium nucleatum subsp. nucleatum ATCC 23726; conditions: for Growth inhibition of FNN23: 10 µM compound, 1 × 10^5 CFU/mL, growth inhibition = no visible growth (OD600 <0.01) after 120 h
Method: To test CPP-PNA conjugates for growth inhibition, we diluted mid-exponential phase cultures of FNN23 to 1 × 10^5 colony forming units (CFUs) per milliliter in Mueller-Hinton Broth (MHB) and incubated the diluted bacteria with 10 µM of either (KFF)3K- or (RXR)4XB- conjugated PNAs targeting acpP, ftsZ or gyrA. Growth was monitored over time by OD600 measurements, with growth inhibition defined as no visible growth (OD600 <0.01) after 120 h. […] Based on these findings, we conclude that CPP-PNAs targeting fusobacterial mRNAs are not effective in antisense inhibition.
The following fusobacterial strains were used in this study: Fusobacterium nucleatum subsp. nucleatum ATCC 23726 (FNN23) acquired from the American Type Culture Collection (ATCC), F. nucleatum subsp. nucleatum ATCC 25586 (FNN25), F. nucleatum subsp. vincentii ATCC 49256 (FNV), and F. nucleatum subsp. polymorphum ATCC 10953 (FNP) acquired from the German Collection of Microorganisms and Cell Culture (DSMZ), F. nucleatum subsp. animalis 7_1 (FNA) and F. periodonticum 2_1_31 (FPE) both received as a kind gift from E. Allen-Vercoe (University of Guelph, Canada). All strains were routinely grown at 37°C in 80:10:10 (N2:H2:CO2) anaerobic conditions on 2% agar supplemented BHI plates (BHI, 1% [wt:vol] dried yeast extract, 1% [vol:vol] 50% sterile-filtered glucose solution, 5 µg/mL of hemin; 1% [vol:vol] fetal bovine serum) from frozen 20% glycerol stocks kept at −80°C. For liquid growth, the strains were cultured in Columbia broth (ColB; BD Difco). Precultures were prepared 24 h before inoculating the working culture at a 1:50 dilution in fresh ColB until OD600 0.5 was reached. Cultures were then diluted in non-cation adjusted Mueller-Hinton Broth (MHB, BD Difco) to the desired CFU/mL number. P. gingivalis (DSM 20709) was purchased from DSMZ and grown at 37°C in anaerobic conditions as mentioned above on 2% agar supplemented BHI+ plates (BHI, 1% [wt:vol] dried yeast extract, 1% [vol:vol] 50% sterile filtered glucose solution, 5 µg/ml of hemin; 10% [vol:vol] fetal bovine serum; and 1 µg/mL vitamin K3) for 4 days. For liquid growth, P. gingivalis was cultured in BHI+ medium (BHI, BD Difco supplemented with 1% [vol:vol] 50% sterile-filtered glucose solution, 5 µg/mL of hemin; 1% [vol:vol] fetal bovine serum, and 1 µg/mL vitamin K3). Precultures were prepared 24 h before inoculating the working culture at a 1:20 dilution in BHI+ until OD600 of 0.5 was reached. All plates, media, buffers, and reagents were brought into the anaerobic chamber the day before usage to ensure full oxygen depletion.
To determine the MIC value, broth microdilutions were performed according to the standard protocol with some modifications ([119]). An overnight bacterial culture was diluted in a fresh ColB medium and grown to OD600 0.5 (mid-exponential phase). […] To determine the growth inhibition of P. gingivalis, an o.n. culture grown in BHI+ was diluted 1:1,500 in MHB to obtain 1 × 10^5 CFU/mL. E. coli K12, E. coli Nissle 1917, and S. enterica o.n. cultures grown in MHB were diluted 1:1,800 in fresh MHB to obtain 1 × 10^5 CFU/mL. In total, 190 µL of diluted bacterial cultures were pipetted into a transparent 96-well plate (Nunc, Thermo Fischer Scientific) together with 10 µL of respective 20× CPP or CPP-PNA stock or water as control. Bacterial growth was monitored by measuring OD600 every 20 min with constant shaking in a plate reader (Biotek) under the normal atmospheric environment or positioned in the anaerobic chamber with double orbital shaking every 20 min prior to each measurement with 237 cpm at 37°C for 120 h.

“(RXR)4XB-GACATAATTGT [FUS79, non-targeting (RXR)4XB-PNA 11-mer control, (RXR)4XB-…]” was tested, and the “Effect on growth of S. enterica” value [1] was “no specific bactericidal effect”, the “Growth inhibition of E. coli K12” value [2] was “no growth inhibition” and the “Bactericidal effect (viable cells, CFU) on FNN23” value [3] was “no visible CFUs detected on the agar plate after 96 h”. For the same substance, the “Growth inhibition of FNN23” value ([4]; MHB) was “completely inhibited growth; also recorded: inhibited the growth”, the “Effect on FNN23 at higher inoculum” value ([4]; 10 µM, 10^7 CFU/mL in MHB (Fig. S3B)) was “no longer bactericidal” and the “Growth inhibition of FNN23 by further batches of FUS79” value ([4]; batch reordered from original vendor and in-house synthesis, MHB, 1 x 10^5 CFU per ml (Fig. S2A and B)) was “Both batches confirmed the FUS79-mediated growth inhibition”. The “MIC of FUS79” value ([4]; dilution series, FNN23 in MHB at 1 × 10^5 CFU/mL input, anaerobic, 37°C, OD600 <0.01, three replicates (Fig. 3A)) was 10 µM, the “Effect on FNN23 in brain heart infusion (BHI)” value ([4]; peptide-rich medium BHI, 1 x 10^5 CFU per ml input (Fig. S3C)) was “no effect” and the “Effect on FNN23 in Columbia broth (ColB)” value ([4]; peptide-rich medium ColB, 1 x 10^5 CFU per ml input (Fig. S3C)) was “no effect”.
For RXRRXRRXRRXRXB [PNAscr], the “Growth inhibition of E. coli K12” value [2] was “no growth inhibition”, the “Bactericidal effect (viable cells, CFU) on FNN23” value [3] was “no bactericidal effect” and the “Growth inhibition of FNN23” value ([4]; MHB) was “no impact on growth”.
